Source: patent US7411039B2, “GLP-2 compounds, formulations, and uses thereof” (Novo Nordisk A/S, priority 2002, dated 2008)
Where two headings read alike, the source gives them in different places.

What was measured:
[1] = test system: growth of the small intestine in mice; assay type: in vivo; settings: for Small intestinal weight, Mean ± SD / Small intestinal weight/body weight, Mean ± SD: group mean
From the text: Bioassay in Mice. Dose-Response Study of GLP-2 Derivatives. • Table 3. Model parameter estimates following nonlinear regression analysis of dose and small intestinal weights relative to body weight. • Table 4. Model parameter estimates following nonlinear regression analysis of dose and small intestinal weights. • Table 5. Body weight, small intestinal weight and relative small intestinal weight of mice treated with L17K(3-(tetradecanoylamino)propionyl)/K30R-[…]. • Table 6. […]. Body weight, small intestinal weight and relative small intestinal weight of mice treated with A2G-[…]. • Table 8. Body weight, small intestinal weight and relative small intestinal weight of control mice.
The following GLP-2 derivatives and analog were tested: • 1. L17K(3-(tetradecanoylamino)propionyl)/K30R-[…]. • 2. L17K(3-(hexadecanoylamino)propionyl)/K30R-[…]. • 3. A2G-[…]. All derivatives were dissolved and diluted in buffer containing:
Disodiumhydrogenphosphate 1.42 mg/ml, Mannitol 36.9 mg/ml, Phenol 5 mg/ml, pH 8.0.
189 female C57b1 mice were used in the study. All animals were divided into four groups:
• Group 1: Controls • Group 2: L17K(3-(tetradecanoylamino)propionyl)/K30R-[…] • Group 3: L17K(3-(hexadecanoylamino)propionyl)/K30R-[…] • Group 4: A2G-[…] Dosing
All animals received a daily subcutaneous injection of 100 pi for 10 days with the following doses:
At Day 10 the animals were weighted before they were sacrificed. The intestine was carefully removed from each animal and the small intestine dissected, rinsed with saline and weighted.
Body weight, small intestinal weight and small intestinal weight relative to body weight were reported for all animals and used generating the dose-response relationship. The treatment-induced increase in both absolute and relative small intestinal weight is calculated for each treatment group, since this is considered the pharmacologically relevant efficacy parameter.
A generalised Michaelis-Menten model, with shape factor γ corresponding to the Hillslope in the semilogarithmic dose-response curve and E0 representing the background efficacy level at D=0, was used as dose-response model. Emax is the maximal effect observed and ED50 is the dose that gives an effect equal to 50% of Emax. The model was used because of the higher flexibility compared to a four parameter logistic dose-response model (1). The model was fitted to data using nonlinear regression in order to determine estimates for Emax, ED50, γ and E0.
[formula] The goodness of fit was evaluated by visual inspection of plots showing observed data points together with fitted curves and residuals plots. Parameter estimates are presented together with CV % and 95% C.I.
In order to account for the variability in the background efficacy level, control data were included in the nonlinear regression analysis as D=0 for all three treatment groups.
The nonlinear regression analyses were performed using WinNonlin Professional, version 3.1, Pharsight. The nonlinear regression was performed using the Gauss-Newton (Levenberg and Hartley) algorithm.

[2] = test system: Dextran sulfate (DS)-induced colitis; settings: 350 ng or 750 ng s.c. twice daily for 9-10 days, cited from earlier work
[3] = background efficacy level at D=0, nonlinear regression of dose-response, mice, daily s.c. for 10 days
[4] = dose level A, 33 μg daily s.c. for 10 days
[5] = dose level B, 16.5 μg daily s.c. for 10 days
[6] = dose level C, 8.25 μg daily s.c. for 10 days
[7] = dose level D, 4.125 μg daily s.c. for 10 days
[8] = dose level E, 2.063 μg daily s.c. for 10 days
[9] = dose level F, 1.031 μg daily s.c. for 10 days
[10] = dose level G, 0.512 μg daily s.c. for 10 days
[11] = nonlinear regression of dose-response
[12] = nonlinear regression of dose-response, mice, daily s.c. for 10 days
[13] = treatment-induced increase, secondary parameter of curve fitting

SMILES: CC[C@H](C)[C@H](NC(=O)[C@H](Cc1ccccc1)NC(=O)[C@H](CC(=O)O)NC(=O)[C@H](CCCNC(=N)N)NC(=O)[C@H](C)NC(=O)[C@H](C)NC(=O)[C@H](CC(C)C)NC(=O)[C@H](CC(N)=O)NC(=O)[C@H](CC(=O)O)NC(=O)[C@H](CC(C)C)NC(=O)[C@@H](NC(=O)[C@@H](NC(=O)[C@H](CC(N)=O)NC(=O)[C@H](CCSC)NC(=O)[C@H](CCC(=O)O)NC(=O)[C@H](CC(=O)O)NC(=O)[C@H](CO)NC(=O)[C@H](Cc1ccccc1)NC(=O)[C@H](CO)NC(=O)CNC(=O)[C@H](CC(=O)O)NC(=O)CNC(=O)[C@@H](N)Cc1c[nH]cn1)[C@@H](C)O)[C@@H](C)CC)C(=O)N[C@@H](CC(N)=O)C(=O)N[C@@H](Cc1c[nH]c2ccccc12)C(=O)N[C@@H](CC(C)C)C(=O)N[C@H](C(=O)N[C@@H](CCC(N)=O)C(=O)N[C@H](C(=O)N[C@@H](CCCCN)C(=O)N[C@H](C(=O)N[C@H](C(=O)N[C@@H](CC(=O)O)C(=O)O)[C@@H](C)O)[C@@H](C)CC)[C@@H](C)O)[C@@H](C)CC [A2G-GLP-2(1-33)]
- E0, parameter estimate (CV %), small intestinal weight [1, 3]: 1.1095 (2.0) g
- E0, parameter estimate (CV %), small intestinal weight relative to body weight [1, 3]: 0.0425 (2.4)
- Small intestinal weight, Mean ± SD [1, 4]: 1.2300 ± 0.1602 g
- Small intestinal weight/body weight, Mean ± SD [1, 4]: 0.0501 ± 0.0057
- Small intestinal weight, Mean ± SD [1, 5]: 1.1775 ± 0.1337 g
- Small intestinal weight/body weight, Mean ± SD [1, 5]: 0.0489 ± 0.0042
- Small intestinal weight, Mean ± SD [1, 6]: 1.2463 ± 0.1235 g
- Small intestinal weight/body weight, Mean ± SD [1, 6]: 0.0484 ± 0.0052
- Small intestinal weight, Mean ± SD [1, 7]: 1.1713 ± 0.1687 g
- Small intestinal weight/body weight, Mean ± SD [1, 7]: 0.0448 ± 0.0054
- Small intestinal weight, Mean ± SD [1, 8]: 1.0750 ± 0.1124 g
- Small intestinal weight/body weight, Mean ± SD [1, 8]: 0.0443 ± 0.0027
- Small intestinal weight, Mean ± SD [1, 9]: 1.1688 ± 0.0923 g
- Small intestinal weight/body weight, Mean ± SD [1, 9]: 0.0461 ± 0.0041
- Small intestinal weight, Mean ± SD [1, 10]: 1.1075 ± 0.1014 g
- Small intestinal weight/body weight, Mean ± SD [1, 10]: 0.0436 ± 0.0036
- γ (shape factor, Hillslope), parameter estimate (CV %), small intestinal weight [1, 11]: 8.4169 (1869)
- γ (shape factor, Hillslope), parameter estimate (CV %), small intestinal weight relative to body weight [1, 11]: 0.6625 (109)
- Emax, parameter estimate (CV %), small intestinal weight [1, 12]: 1.2180 (2.3) g
- Emax, parameter estimate (CV %), small intestinal weight relative to body weight [1, 12]: 0.0548 (33.3)
- Emax − E0, parameter estimate (CV %), small intestinal weight [1, 13]: 0.1085 (34.8) g
- Emax − E0, parameter estimate (CV %), small intestinal weight relative to body weight [1, 13]: 0.0123 (151)
- histology of colon ([2]; DS mice): exhibited a greater proportion of intact mucosal epithelium, increased colon length, crypt depth and mucosal area
- body weight loss ([2]; mice receiving 5% DS in the drinking water): lost significantly less body weight
